Assay results taken from ChEMBL document CHEMBL1201862, “PubChem BioAssay data set” (2004).
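Values below derive from 48-hour exposures of cells grown in 96-well plates, with endpoints linearly interpolated between the two concentrations bracketing the appropriate inhibition level. At the GI50, growth is halved.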 Active and inactive are the calls of the source. Rule as the data show it: active = GI50 up to about 1.1 µM and inactive = higher.

Legend:
Assay in all cases: DTP human tumour cell line panel, 48 h
SF-268 = system: SF-268
ACHN = system: ACHN
CAKI-1 = system: CAKI-1
DU-145 = system: DU-145
T47D = system: T47D
TK-10 = system: TK-10
MDA-N = system: MDA-N
SR = system: SR
SN12C = system: SN12C
NCI-H522 = system: NCI-H522
BT-549 = system: BT-549
MOLT-4 = system: MOLT-4
SK-MEL-2 = system: SK-MEL-2
OVCAR-5 = system: OVCAR-5
PC-3 = system: PC-3
RXF 393 = system: RXF 393
K562 = system: K562
UO-31 = system: UO-31
NCI-H226 = system: NCI-H226
MDA-MB-435 = system: MDA-MB-435
SNB-19 = system: SNB-19
A498 = system: A498
SK-MEL-28 = system: SK-MEL-28
SW-620 = system: SW-620
MDA-MB-231 = system: MDA-MB-231
HOP-62 = system: HOP-62
MCF7 = system: MCF7
HL-60 = system: HL-60
SK-MEL-5 = system: SK-MEL-5
Hs-578T = system: Hs-578T
RPMI-8226 = system: RPMI-8226
HCC 2998 = system: HCC 2998
SNB-75 = system: SNB-75
UACC-257 = system: UACC-257
NCI/ADR-RES = system: NCI/ADR-RES
SK-OV-3 = system: SK-OV-3
IGROV-1 = system: IGROV-1
HT-29 = system: HT-29
M14 = system: M14
A549 = system: A549
HCT-15 = system: HCT-15
LOX IMVI = system: LOX IMVI
NCI-H460 = system: NCI-H460
UACC-62 = system: UACC-62
EKVX = system: EKVX
OVCAR-4 = system: OVCAR-4
SF-539 = system: SF-539
OVCAR-8 = system: OVCAR-8
HOP-92 = system: HOP-92
COLO 205 = system: COLO 205
HCT-116 = system: HCT-116
CCRF-CEM = system: CCRF-CEM
Malme-3M = system: Malme-3M
U-251 = system: U-251
786-0 = system: 786-0

## C/C(=N\NC(=S)N(C)C)c1nc2cccnc2[nH]1
SF-268
  GI50: 590 nM (active)
ACHN
  GI50: 618 nM (active)
CAKI-1
  GI50: 501 nM (active)
DU-145
  GI50: 504 nM (active)
T47D
  GI50: 475 nM (active)
TK-10
  GI50: 2100 nM (inactive)
MDA-N
  GI50: 1270 nM (inactive)
SR
  GI50: 679 nM (active)
SN12C
  GI50: 1160 nM (inactive)
NCI-H522
  GI50: 1530 nM (inactive)
BT-549
  GI50: 39.8 nM (active)
MOLT-4
  GI50: 406 nM (active)
SK-MEL-2
  GI50: 583 nM (active)
OVCAR-5
  GI50: 504 nM (active)
PC-3
  GI50: 698 nM (active)
RXF 393
  GI50: 596 nM (active)
K562
  GI50: 2160 nM (inactive)
UO-31
  GI50: 348 nM (active)
NCI-H226
  GI50: 399 nM (active)
MDA-MB-435
  GI50: 762 nM (active)
SNB-19
  GI50: 1020 nM (active)
A498
  GI50: 8280 nM (inactive)
SK-MEL-28
  GI50: 1030 nM (active)
SW-620
  GI50: 883 nM (active)
MDA-MB-231
  GI50: 875 nM (active)
HOP-62
  GI50: 540 nM (active)
MCF7
  GI50: 1050 nM (active)
HL-60
  GI50: 323 nM (active)
SK-MEL-5
  GI50: 387 nM (active)
Hs-578T
  GI50: 1220 nM (inactive)
RPMI-8226
  GI50: 2070 nM (inactive)
HCC 2998
  GI50: 710 nM (active)
SNB-75
  GI50: 3180 nM (inactive)
UACC-257
  GI50: 2010 nM (inactive)
NCI/ADR-RES
  GI50: 449 nM (active)
SK-OV-3
  GI50: 413 nM (active)
IGROV-1
  GI50: 804 nM (active)
HT-29
  GI50: 548 nM (active)
M14
  GI50: 547 nM (active)
A549
  GI50: 792 nM (active)
HCT-15
  GI50: 443 nM
LOX IMVI
  GI50: 673 nM (active)
NCI-H460
  GI50: 478 nM (active)
UACC-62
  GI50: 396 nM (active)
EKVX
  GI50: 475 nM (active)
OVCAR-4
  GI50: 499 nM (active)
SF-539
  GI50: 536 nM (active)
OVCAR-8
  GI50: 982 nM (active)
HOP-92
  GI50: 275 nM (active)
COLO 205
  GI50: 325 nM (active)
HCT-116
  GI50: 893 nM (active)
CCRF-CEM
  GI50: 379 nM (active)
Malme-3M
  GI50: 1380 nM (inactive)
U-251
  GI50: 494 nM (active)
786-0
  GI50: 597 nM (active)
